The values that follow are results of earlier work, collected in patent US4610818A, “N-acyl derivatives of dipeptides, their preparation and their use in the therapy of disorders, and agents for this purpose” (BASF Aktiengesellschaft, priority 1982, dated 1986).

This data set concerns tremor, rigor and akinesia. The conditions noted are these: Parkinson patients, MIF alone or in combination with L-dopa.

As to L-Pro-L-Leu-Gly-NH2 [MIF], the “effect on tremor, rigor and akinesia” value is “advantageous effect”.
